In brackets after ≈: the same amount, converted by molar mass. Activity calls are given as the source filed them. The calls are words filed in the database; no cut-off is given here.
Tests used:
[1] = tested on: Klebsiella pneumoniae; experiment: Antimicrobial activity against NDM1 beta-lactamase expressing Klebsiella pneumoniae ATCC BAA-2470 measured after 18 hrs by broth microdilution method; assay type: functional; conditions: ATCC BAA-2470, 18 h
[2] = target: T1, Cell division protein FtsZ (Staphylococcus aureus) (UniProt P0A031); experiment: Inhibition of Staphylococcus aureus FtsZ GTPase activity preincubated for 10 mins followed by GTP addition and measured after 30 mins
T1 sequence (whole entry): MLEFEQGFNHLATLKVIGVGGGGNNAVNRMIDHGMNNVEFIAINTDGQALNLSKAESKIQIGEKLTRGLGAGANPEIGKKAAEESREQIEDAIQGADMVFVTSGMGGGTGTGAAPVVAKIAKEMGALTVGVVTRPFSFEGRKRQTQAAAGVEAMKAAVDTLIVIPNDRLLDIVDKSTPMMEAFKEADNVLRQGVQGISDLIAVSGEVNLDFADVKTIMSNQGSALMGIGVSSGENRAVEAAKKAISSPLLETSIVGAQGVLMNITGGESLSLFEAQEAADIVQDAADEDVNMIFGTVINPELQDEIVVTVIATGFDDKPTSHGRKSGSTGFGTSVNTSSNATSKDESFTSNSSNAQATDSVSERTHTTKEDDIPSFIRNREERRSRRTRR

[3] = target: T2, Cell division protein FtsZ (Bacillus subtilis (strain 168)) (UniProt P17865); experiment: Inhibition of cell division function of FtsZ in Bacillus subtilis 168 assessed as increase in cell length at MIC after 4 hrs by FM4-64 dye based confocal microscopic method; conditions: Bacillus subtilis subsp. subtilis str. 168
T2 sequence (whole entry): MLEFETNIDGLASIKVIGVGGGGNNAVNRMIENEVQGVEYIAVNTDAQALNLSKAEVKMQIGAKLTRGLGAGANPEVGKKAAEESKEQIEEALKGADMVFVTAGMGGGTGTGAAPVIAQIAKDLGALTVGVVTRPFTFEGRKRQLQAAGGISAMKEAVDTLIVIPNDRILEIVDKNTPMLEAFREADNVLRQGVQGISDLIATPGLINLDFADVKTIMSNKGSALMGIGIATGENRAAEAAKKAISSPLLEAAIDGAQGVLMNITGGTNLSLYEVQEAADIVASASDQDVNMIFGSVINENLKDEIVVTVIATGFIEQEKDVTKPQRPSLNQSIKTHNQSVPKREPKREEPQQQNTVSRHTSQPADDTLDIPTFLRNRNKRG

[4] = tested on: Staphylococcus aureus; experiment: Bactericidal activity against methicillin-resistant Staphylococcus aureus ATCC BAA-41 incubated for 18 hrs followed by replating on TSB agar and measured after 24 hrs by broth microdilution method; assay type: functional
[5] = target: T1, Cell division protein FtsZ (Staphylococcus aureus); experiment: Inhibition of Staphylococcus aureus FtsZ GTPase activity at 4 ug/ml preincubated for 10 mins followed by GTP addition and measured after 30 mins relative to control
[6] = tested on: Escherichia coli; experiment: Antibacterial activity against Escherichia coli BL21 measured after 18 hrs by broth microdilution method; assay type: functional; conditions: BL21, 18 h
[7] = tested on: Staphylococcus aureus; experiment: Ratio of MBC to MIC for methicillin-resistant Staphylococcus aureus ATCC BAA-41; assay type: functional
[8] = tested on: Enterobacter cloacae; experiment: Antimicrobial activity against Ampc beta-lactamase expressing Enterobacter cloacae ATCC BAA-1143 measured after 18 hrs by broth microdilution method; assay type: functional; conditions: ATCC BAA-1143, 18 h
[9] = tested on: Staphylococcus aureus; experiment: Bactericidal activity against penicillin-resistant Staphylococcus aureus ATCC 29213 incubated for 18 hrs followed by replating on TSB agar and measured after 24 hrs by broth microdilution method; assay type: functional
[10] = tested on: Staphylococcus aureus; experiment: Antimicrobial activity against methicillin-resistant Staphylococcus aureus ATCC 43300 measured after 18 hrs by broth microdilution method; assay type: functional; conditions: ATCC 43300, 18 h
[11] = tested on: Escherichia coli; experiment: Antimicrobial activity against Escherichia coli ATCC 25922 measured after 18 hrs by broth microdilution method; assay type: functional; conditions: ATCC 25922, 18 h
[12] = tested on: Staphylococcus aureus; experiment: Antimicrobial activity against methicillin-resistant Staphylococcus aureus ATCC BAA-41 measured after 18 hrs by broth microdilution method; assay type: functional; conditions: ATCC BAA-41, 18 h
[13] = tested on: Staphylococcus aureus; experiment: Ratio of MBC to MIC for penicillin-resistant Staphylococcus aureus ATCC 29213; assay type: functional
[14] = tested on: Staphylococcus aureus; experiment: Antimicrobial activity against penicillin-resistant Staphylococcus aureus ATCC 29213 measured after 18 hrs by broth microdilution method; assay type: functional; conditions: ATCC 29213, 18 h
[15] = tested on: Staphylococcus aureus; experiment: Antimicrobial activity against penicillin-resistant Staphylococcus aureus ATCC 29213 assessed as ratio of MIC after and before 15 serial passages preincubated followed by replating and measured after 24 hrs; assay type: functional
[16] = tested on: Enterococcus faecalis; experiment: Antimicrobial activity against Enterococcus faecalis ATCC 29212 measured after 18 hrs by broth microdilution method; assay type: functional; conditions: ATCC 29212, 18 h
[17] = target: T1, Cell division protein FtsZ (Staphylococcus aureus); experiment: Inhibition of Staphylococcus aureus FtsZ GTPase activity at 64 ug/ml preincubated for 10 mins followed by GTP addition and measured after 30 mins relative to control
[18] = tested on: Staphylococcus aureus; experiment: Antimicrobial activity against Staphylococcus aureus ATCC 25923 measured after 18 hrs by broth microdilution method; assay type: functional; conditions: ATCC 25923, 18 h
[19] = target: T1, Cell division protein FtsZ (Staphylococcus aureus); experiment: Inhibition of Staphylococcus aureus FtsZ GTPase activity at 16 ug/ml preincubated for 10 mins followed by GTP addition and measured after 30 mins relative to control
[20] = tested on: Pseudomonas aeruginosa; experiment: Antimicrobial activity against multidrug-resistant Pseudomonas aeruginosa ATCC BAA-2108 measured after 18 hrs by broth microdilution method; assay type: functional; conditions: ATCC BAA-2108, 18 h
[21] = tested on: Enterococcus faecium; experiment: Antimicrobial activity against drug-susceptible Enterococcus faecium ATCC 49624 measured after 18 hrs by broth microdilution method; assay type: functional; conditions: ATCC 49624, 18 h
[22] = target: T1, Cell division protein FtsZ (Staphylococcus aureus); experiment: Inhibition of Staphylococcus aureus FtsZ GTPase activity at 32 ug/ml preincubated for 10 mins followed by GTP addition and measured after 30 mins relative to control
[23] = tested on: Escherichia coli; experiment: Antibacterial activity against FtsZ over-expressing Escherichia coli BL21 measured after 18 hrs by broth microdilution method; assay type: functional; conditions: BL21, 18 h
[24] = tested on: Enterococcus faecium; experiment: Antimicrobial activity against vancomycin-resistant Enterococcus faecium ATCC 700221 measured after 18 hrs by broth microdilution method; assay type: functional; conditions: ATCC 700221, 18 h
[25] = tested on: Acinetobacter baumannii; experiment: Antimicrobial activity against multidrug-resistant Acinetobacter baumannii ATCC 19606 measured after 18 hrs by broth microdilution method; assay type: functional; conditions: ATCC 19606 = CIP 70.34 = JCM 6841, 18 h
[26] = target: T1, Cell division protein FtsZ (Staphylococcus aureus); experiment: Inhibition of Staphylococcus aureus FtsZ GTPase activity at 1 ug/ml preincubated for 10 mins followed by GTP addition and measured after 30 mins relative to control
[27] = tested on: Bacillus subtilis; experiment: Antibacterial activity against Bacillus subtilis 168 measured after 18 hrs by broth microdilution method; assay type: functional; conditions: subsp. subtilis str. 168, 18 h
[28] = tested on: Escherichia coli; experiment: Antimicrobial activity against NDM1 beta -lactamse expressing Escherichia coli ATCC BAA-2469 measured after 18 hrs by broth microdilution method; assay type: functional; conditions: ATCC BAA-2469, 18 h
[29] = tested on: Staphylococcus aureus; experiment: Bactericidal activity against methicillin-resistant Staphylococcus aureus ATCC BAA-41 assessed as reduction in bacterial load incubated for 1 to 24 hrs followed by replating on MH agar and measured after 24 hrs by time-kill assay; assay type: functional, organism-based
[30] = tested on: Staphylococcus aureus; experiment: Bactericidal activity against methicillin-resistant Staphylococcus aureus ATCC BAA-41 assessed as bacterial load at 1 to 4 times MIC incubated for 24 hrs followed by replating on MH agar and measured after 24 hrs by time-kill assay; assay type: functional
[31] = target: T2, Cell division protein FtsZ (Bacillus subtilis (strain 168)); experiment: Inhibition of cell division function of FtsZ in Bacillus subtilis 168 assessed as cell length at MIC after 4 hrs by FM4-64 dye based confocal microscopic method; conditions: Bacillus subtilis subsp. subtilis str. 168
[32] = tested on: Bacillus subtilis; experiment: Disruption of membrane integrity in Bacillus subtilis 168 at MIC after 4 hrs by FM4-64 dye based confocal microscopic method; assay type: organism-based, subsp. subtilis str. 168
[33] = tested on: Staphylococcus aureus; experiment: Bactericidal activity against methicillin-resistant Staphylococcus aureus ATCC BAA-41 assessed as reduction in bacterial load at 2 to 4 times MIC incubated for 4 hrs followed by replating on MH agar and measured after 24 hrs by time-kill assay; assay type: functional, organism-based
[34] = target: T1, Cell division protein FtsZ (Staphylococcus aureus); experiment: Inhibition of recombinant Staphylococcus aureus FtsZ polymerization at 0.4 to 1.2 ug/ml by 90 degree light scattering-based fluorescence spectrometric analysis; conditions: TDE = time-dependent effect
[35] = target: T1, Cell division protein FtsZ (Staphylococcus aureus); experiment: Inhibition of recombinant Staphylococcus aureus FtsZ polymerization by 90 degree light scattering-based fluorescence spectrometric analysis

Structure (SMILES) | MIC [1] [µg/mL] | inhibition [2] | inhibition [3] | MBC [4] [µg/mL] | inhibition [5] [%] | MIC [8] [µg/mL] | MBC [9] [µg/mL] | MIC [10] [µg/mL] | MIC [11] [µg/mL] | MIC [12] [µg/mL] | MIC [14] [µg/mL] | Ratio [15] | MIC [16] [µg/mL] | MIC [18] [µg/mL] | MIC [20] [µg/mL] | MIC [21] [µg/mL] | MIC [24] [µg/mL] | MIC [25] [µg/mL] | MIC [27] [µg/mL] | MIC [28] [µg/mL] | further results
C[n+]1c(/C=C/c2c[nH]c3ccccc23)cc(N2CCCCC2)c2ccccc21.[I-] | > 64 | Dose-dependent effect | Active | 4 | 27.8 | > 64 | 2 | 4 | 8 | 2 | 1 | 4 | 4 | 2 | > 64 | 2 | 4 | 16 | 4 | 16 | MIC [6]: 8 µg/mL; Ratio [7]: 2; Ratio [13]: 2; inhibition [17]: 41.9%; inhibition [19]: 31.8%; inhibition [22]: 34.3%; MIC [23]: 16 µg/mL; inhibition [26]: 13.6%
CN[C@H](CC(C)C)C(=O)N[C@H]1C(=O)N[C@@H](CC(N)=O)C(=O)N[C@H]2C(=O)N[C@H]3C(=O)N[C@H](C(=O)N[C@H](C(=O)O)c4cc(O)cc(O)c4-c4cc3ccc4O)[C@H](O)c3ccc(c(Cl)c3)Oc3cc2cc(c3O[C@@H]2O[C@H](CO)[C@@H](O)[C@H](O)[C@H]2O[C@H]2C[C@](C)(N)[C@H](O)[C@H](C)O2)Oc2ccc(cc2Cl)[C@H]1O [VANCOMYCIN] | > 64 | – | – | 2 (≈ 1.38 µM) | – | > 64 | 2 (≈ 1.38 µM) | – | > 64 | – | – | – | 2 (≈ 1.38 µM) | – | > 64 | – | > 64 | 64 (≈ 44.2 µM) | 0.25 (≈ 0.173 µM) | > 64 | –
CC1CCN(c2cc(/C=C/c3c[nH]c4ccccc34)[n+](C)c3ccccc23)CC1.[I-] | > 64 | – | Active | – | – | > 64 | – | 4 | 16 | 4 | 4 | – | 4 | 2 | > 64 | 2 | 4 | 32 | 4 | 32 | –
CO[C@H]1/C=C/O[C@@]2(C)Oc3c(C)c(O)c4c(O)c(c(/C=N/N5CCN(C)CC5)c(O)c4c3C2=O)NC(=O)/C(C)=C\C=C\[C@H](C)[C@H](O)[C@@H](C)[C@@H](O)[C@@H](C)[C@H](OC(C)=O)[C@@H]1C [RIFAMPIN] | – | – | – | – | – | – | – | – | – | – | – | 2000 | – | – | – | – | – | – | – | – | –
C[n+]1c(/C=C/c2cc3ccccc3[nH]2)cc(N2CCCCC2)c2ccccc21.[I-] | > 64 | Dose-dependent effect | – | 4 | 30.2 | > 64 | 2 | 2 | 16 | 2 | 1 | 4 | 4 | 1 | > 64 | 2 | 4 | 32 | 4 | 16 | Activity [29]: Dose-dependent effect; Activity [30]: 1 ×10³ CFU/ml; Activity [31]: 70 to 130 µm; Activity [32]: Non-Toxic; Activity [33]: Active; MIC [6]: 8 µg/mL; Ratio [7]: 2; Ratio [13]: 2; inhibition [17]: 52.1%; inhibition [19]: 40.8%; inhibition [34]: Tde; inhibition [35]: Dose-dependent effect; inhibition [22]: 48.3%; MIC [23]: 32 µg/mL; inhibition [26]: 17.9%

— ChEMBL document CHEMBL4480418, “Antibacterial activity of indolyl-quinolinium derivatives and study their mode of action” (Bioorg Med Chem, 2019)
